{"source": "PubChem BioAssay (NCI)", "assay_in_all_cases": "inhibition of tumour cell growth, NCI panel, 48 h", "key": {"DU-145 prostate": {"system": "DU-145 prostate"}, "SF-295 CNS": {"system": "SF-295 CNS"}, "SNB-19 CNS": {"system": "SNB-19 CNS"}, "SN12C renal": {"system": "SN12C renal"}, "IGROV1 ovarian": {"system": "IGROV1 ovarian"}, "SK-MEL-2 melanoma": {"system": "SK-MEL-2 melanoma"}, "HT29 colon": {"system": "HT29 colon"}, "MCF7 breast": {"system": "MCF7 breast"}, "MDA-MB-435": {"system": "MDA-MB-435"}, "SF-539 CNS": {"system": "SF-539 CNS"}, "SK-MEL-28 melanoma": {"system": "SK-MEL-28 melanoma"}, "HCC-2998 colon": {"system": "HCC-2998 colon"}, "NCI-H522 lung": {"system": "NCI-H522 lung"}, "LOX IMVI melanoma": {"system": "LOX IMVI melanoma"}, "OVCAR-8 ovarian": {"system": "OVCAR-8 ovarian"}, "CCRF-CEM leukemia": {"system": "CCRF-CEM leukemia"}, "HL-60(TB) leukemia": {"system": "HL-60(TB) leukemia"}, "HS 578T breast": {"system": "HS 578T breast"}, "HCT-116 colon": {"system": "HCT-116 colon"}, "SK-OV-3 ovarian": {"system": "SK-OV-3 ovarian"}, "SK-MEL-5 melanoma": {"system": "SK-MEL-5 melanoma"}, "OVCAR-5 ovarian": {"system": "OVCAR-5 ovarian"}, "TK-10 renal": {"system": "TK-10 renal"}, "MDA-MB-468 breast": {"system": "MDA-MB-468 breast"}, "MOLT-4 leukemia": {"system": "MOLT-4 leukemia"}, "NCI/ADR-RES ovarian": {"system": "NCI/ADR-RES ovarian"}, "M14 melanoma": {"system": "M14 melanoma"}, "BT-549 breast": {"system": "BT-549 breast"}, "HOP-62 NSCLC": {"system": "HOP-62 NSCLC"}, "SNB-75 CNS": {"system": "SNB-75 CNS"}}, "note": "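Compound exposure: 48 hours, 5 concentrations, 96-well plates. Abbreviation: GI50, concentration required for 50% inhibition of growth. TGI denotes the concentration required for complete inhibition of growth.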"}
{"smiles": "CC(=O)Nc1ccc(-c2cn(-c3cccc(C(=O)Nc4ccc(F)c(C(F)(F)F)c4)c3)nn2)cn1", "values": [{"measurement": "TGI", "setting": "DU-145 prostate", "value": 79.3, "unit": "µM"}, {"measurement": "GI50", "setting": "SF-295 CNS", "value": 14.6, "unit": "µM"}, {"measurement": "TGI", "setting": "SF-295 CNS", "value": 28.2, "unit": "µM"}, {"measurement": "GI50", "setting": "SNB-19 CNS", "value": 19.5, "unit": "µM"}, {"measurement": "TGI", "setting": "SNB-19 CNS", "value": 34.9, "unit": "µM"}, {"measurement": "GI50", "setting": "SN12C renal", "value": 16.1, "unit": "µM"}, {"measurement": "TGI", "setting": "SN12C renal", "value": 30.4, "unit": "µM"}, {"measurement": "GI50", "setting": "IGROV1 ovarian", "value": 16.5, "unit": "µM"}, {"measurement": "TGI", "setting": "IGROV1 ovarian", "value": 30.9, "unit": "µM"}, {"measurement": "GI50", "setting": "SK-MEL-2 melanoma", "value": 16.6, "unit": "µM"}, {"measurement": "TGI", "setting": "SK-MEL-2 melanoma", "value": 34.4, "unit": "µM"}, {"measurement": "GI50", "setting": "HT29 colon", "value": 16.3, "unit": "µM"}, {"measurement": "TGI", "setting": "HT29 colon", "value": 33.6, "unit": "µM"}, {"measurement": "GI50", "setting": "MCF7 breast", "value": 16, "unit": "µM"}, {"measurement": "TGI", "setting": "MCF7 breast", "value": 34.3, "unit": "µM"}, {"measurement": "GI50", "setting": "MDA-MB-435", "value": 16.8, "unit": "µM"}, {"measurement": "TGI", "setting": "MDA-MB-435", "value": 32.9, "unit": "µM"}, {"measurement": "GI50", "setting": "SF-539 CNS", "value": 15.1, "unit": "µM"}, {"measurement": "TGI", "setting": "SF-539 CNS", "value": 28.5, "unit": "µM"}, {"measurement": "GI50", "setting": "SK-MEL-28 melanoma", "value": 14.6, "unit": "µM"}, {"measurement": "TGI", "setting": "SK-MEL-28 melanoma", "value": 28, "unit": "µM"}, {"measurement": "GI50", "setting": "HCC-2998 colon", "value": 16.9, "unit": "µM"}, {"measurement": "TGI", "setting": "HCC-2998 colon", "value": 32.6, "unit": "µM"}, {"measurement": "GI50", "setting": "NCI-H522 lung", "value": 17.7, "unit": "µM"}, {"measurement": "TGI", "setting": "NCI-H522 lung", "value": 38.1, "unit": "µM"}, {"measurement": "GI50", "setting": "LOX IMVI melanoma", "value": 13.8, "unit": "µM"}, {"measurement": "TGI", "setting": "LOX IMVI melanoma", "value": 26.7, "unit": "µM"}, {"measurement": "GI50", "setting": "OVCAR-8 ovarian", "value": 28, "unit": "µM"}, {"measurement": "TGI", "setting": "OVCAR-8 ovarian", "value": 89.8, "unit": "µM"}, {"measurement": "GI50", "setting": "CCRF-CEM leukemia", "value": 22.2, "unit": "µM"}, {"measurement": "TGI", "setting": "CCRF-CEM leukemia", "value": 71.5, "unit": "µM"}, {"measurement": "GI50", "setting": "HL-60(TB) leukemia", "value": 6.57, "unit": "µM"}, {"measurement": "TGI", "setting": "HL-60(TB) leukemia", "value": "> 100", "unit": "µM"}, {"measurement": "GI50", "setting": "HS 578T breast", "value": 17.4, "unit": "µM"}, {"measurement": "TGI", "setting": "HS 578T breast", "value": 66.7, "unit": "µM"}, {"measurement": "GI50", "setting": "HCT-116 colon", "value": 1.47, "unit": "µM"}, {"measurement": "TGI", "setting": "HCT-116 colon", "value": 18.2, "unit": "µM"}, {"measurement": "GI50", "setting": "SK-OV-3 ovarian", "value": 20.7, "unit": "µM"}, {"measurement": "TGI", "setting": "SK-OV-3 ovarian", "value": 45.4, "unit": "µM"}, {"measurement": "GI50", "setting": "SK-MEL-5 melanoma", "value": 17.2, "unit": "µM"}, {"measurement": "TGI", "setting": "SK-MEL-5 melanoma", "value": 34, "unit": "µM"}, {"measurement": "GI50", "setting": "OVCAR-5 ovarian", "value": 17.7, "unit": "µM"}, {"measurement": "TGI", "setting": "OVCAR-5 ovarian", "value": 35, "unit": "µM"}, {"measurement": "GI50", "setting": "TK-10 renal", "value": 23.7, "unit": "µM"}, {"measurement": "TGI", "setting": "TK-10 renal", "value": 41.1, "unit": "µM"}, {"measurement": "GI50", "setting": "MDA-MB-468 breast", "value": 14.8, "unit": "µM"}, {"measurement": "TGI", "setting": "MDA-MB-468 breast", "value": 29, "unit": "µM"}, {"measurement": "GI50", "setting": "MOLT-4 leukemia", "value": 20.2, "unit": "µM"}, {"measurement": "TGI", "setting": "MOLT-4 leukemia", "value": 61.1, "unit": "µM"}, {"measurement": "GI50", "setting": "NCI/ADR-RES ovarian", "value": 27.5, "unit": "µM"}, {"measurement": "TGI", "setting": "NCI/ADR-RES ovarian", "value": 89.1, "unit": "µM"}, {"measurement": "GI50", "setting": "M14 melanoma", "value": 15, "unit": "µM"}, {"measurement": "TGI", "setting": "M14 melanoma", "value": 41.3, "unit": "µM"}, {"measurement": "GI50", "setting": "BT-549 breast", "value": 13.2, "unit": "µM"}, {"measurement": "TGI", "setting": "BT-549 breast", "value": 30.9, "unit": "µM"}, {"measurement": "GI50", "setting": "HOP-62 NSCLC", "value": 21.2, "unit": "µM"}, {"measurement": "TGI", "setting": "HOP-62 NSCLC", "value": 44.6, "unit": "µM"}, {"measurement": "GI50", "setting": "SNB-75 CNS", "value": 13.8, "unit": "µM"}, {"measurement": "TGI", "setting": "SNB-75 CNS", "value": 35.7, "unit": "µM"}]}
